Laboratory results taken from patent US9103820B2 (priority 2004, dated 2015).
Positions of bridges follow the written chain, without caps; N, C: chain ends. Non-standard residues stand in square brackets, D forms with d. Chains are numbered I, II in the order given. No end group written: not given here. ξ: configuration not given here. ξK = NCCCCC(N)C(=O)O; Ahx = NCCCCCC(=O)O

Tests used:
[1] = molecular target: His-tagged Stx 2B-subunit (Escherichia phage 933W, UniProt P09386); test: biochemical; format: binding, Escherichia coli O157:H7
His-tagged Stx 2B-subunit, sequence (P09386 20-89 limits assumed): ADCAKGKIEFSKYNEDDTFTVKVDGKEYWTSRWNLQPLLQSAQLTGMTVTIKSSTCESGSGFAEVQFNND

STX = conditions: read-out: affinity (Kd) for STX; cited from earlier work

Substance | Kd [1] | Kd (STX)
I: MAKRRNPRRA[Ahx][ξK][ξK] / II: MAKRRNPRRA[Ahx][ξK] / III: MAKRRNPRRA[Ahx] / IV: MAKRRNPRRA[Ahx] (amide I:12-IV:C, I:13-II:C, II:12-III:C) [KRRNPRR] | 2.1 µM | 
I: MAPPRRNRRA[Ahx][ξK][ξK] / II: MAPPRRNRRA[Ahx][ξK] / III: MAPPRRNRRA[Ahx] / IV: MAPPRRNRRA[Ahx] (amide I:12-IV:C, I:13-II:C, II:12-III:C) [PPRRNRR] | 2.7 µM | 
I: MAFRRNRRNA[Ahx][ξK][ξK] / II: MAFRRNRRNA[Ahx][ξK] / III: MAFRRNRRNA[Ahx] / IV: MAFRRNRRNA[Ahx] (amide I:12-IV:C, I:13-II:C, II:12-III:C) [FRRNRRN] | 1.7 µM | 
Galα(1-4)-Galβ(1-4)-G1cβ1- [globo3 sugar] |  | 1000 µM
I: MAPPPRRRRA[Ahx][ξK][ξK] / II: MAPPPRRRRA[Ahx][ξK] / III: MAPPPRRRRA[Ahx] / IV: MAPPPRRRRA[Ahx] (amide I:12-IV:C, I:13-II:C, II:12-III:C) [PPPRRRR] | 3.2 µM | 
